Measurements: patent US4220795A, “Cyclobutyl substituted derivatives of prostaglandin analogs” (Miles Laboratories, Inc., priority 1978, dated 1980)
Entries after “also recorded” stand apart in the source; their conditions may differ.

Experiments:
gastric secretion = experiment: Effects on Gastric Secretion in the Rat (Test B); type: in vivo; settings: pylorus ligated, s.c. 2 x 1.5 mg/kg, 4 hr
Text: B. Evaluation of the Effects of Prostaglandin Analogs III on Gastric Secretion in the Rat
A procedure based on that described by Lipmann (J. Pharm. Pharmacol., 21:335 [1968]) was used to assess the influence of test compounds on gastric secretion. Rats of one sex weighing 150 to 200 g were randomly divided into groups of six animals each and fasted for 48 hr previous to the experiments, water being available ad limitum. The animals were anesthetized with ether, the abdomen was opened through a midline incision and the pylorus was ligated. Test compounds were diluted from stock solution so as to administer a dose of 1.5 mg/kg in a volume equivalent to 1 ml/kg. Subcutaneous injections were applied immediately after surgery and again 2 hr later, so that a total dose of 3.0 mg/kg was administered. Dilutions were made with phosphate buffer (pH 7.38) as recommended by Lee et al. (Prostaglandins 3:29 [1973]), in order to insure adequate stability of drugs at the subcutaneous depot. Each compound was tested in one group of rats; an additional control group received only the vehicle.
Four hr after pyloric ligation the animals were killed with ether, the cardias ligated and the stomachs removed. The volume of gastric secretion was measured and the contents centrifuged at 5000 rpm for 10 min. Total acid in the supernatant was titrated against a 0.1 N sodium hydroxide solution and the amount expressed in mEq.
Volume and total acid values of the treated group were compared with those of the controls by the "T" test. Anti-secretory activity was scored according to the following scale: […]

rat uterus = experiment: Effects on the Rat Uterus (Test F); settings: rat uterus segments, 0.001 to 10.0 mcg/ml, 29° C.
Experimental: F. Evaluation of the Effects of Prostaglandin Analogs III on the Rat Uterus
The uterine stimulant effect of test compounds is determined in segments of uterus obtained from rats (140-160 g) pretreated subcutaneously with 1 mg/kg of diethylstibesterol 18 hr before the experiment. The tissues are placed in 10 ml chambers filled with de-Jalon solution at 29° C. and bubbled with 95% O2 and 5% CO2, and prepared for isometric recording with force displacement transducers. Preparations are stretched to an initial tension of 1 g and are left undisturbed for 30 min, after which two responses to 1 mcg/ml of carbachol added to the bath at a 10 min interval, are obtained (the value of the second response is recorded). Responses to increasing concentrations of the test compound (0.001 to 10.0 mcg/ml with one log intervals) are then recorded every 10 min. Preparations are washed four times after each response. All doses of drugs are administered in a 0.1 ml volume. Since it has been observed that the magnitude of the second response to carbachol, which is approximately 10% greater than the first, is close to the maximal response of the tissue, such value is taken as a measure of the sensititity of the particular segment. Responses to each concentration of the test compound are expressed in terms of percentage of the second response to carbachol and the ED50 (dose producing a response of 50% that of carbachol) is calculated graphically. Activity is scored according to the following scale: […]

[1] = test system: smooth muscle of the vas deferens; settings: mammalian male reproductive system; cited from earlier work
[2] = test system: human platelet aggregation (collagen-induced, platelet rich plasma); settings: compared with compounds of Formula III; cited from earlier work
[3] = test system: female reproductive system; settings: cited from earlier work
femoral blood flow = experiment: Effects on Femoral Blood Flow in the Dog (Test C); type: in vivo, dog (mongrel); settings: anesthetized dog, intraarterial 0.001 to 10 mcg
Experimental: C. Evaluation of the Effects of Prostaglandin Analogs III on the Femoral Blood Flow in the Dog
The peripheral vasodilator or constrictor effects of test compounds were determined in mongrel dogs of either sex, weighing between 10 and 20 kg anesthestized intravenously with 35 mg/kg of sodium pentobarbital. An external iliac artery was dissected immediately above the femoral arch for a length of approximately 5 cm and a previously calibrated, non-connulating electromagnetic flowmeter sensor with a lumen between 2.5 and 3.5 mm was placed snugly around the vessel. Cannulas were placed in a branch of the artery arising distally to the location of the flowmeter sensor for intraarterial drug administrations, in the contralateral femoral artery for systemic blood pressure recordings and in the trachea for artificial respiration with room air. Femoral blood flow and systemic blood pressure were continuously recorded with an electromagnetic flowmeter and pressure transducer, respectively.
After an adequate control period, test compounds were injected intraarterially at one log-spaced doses ranging from 0.001 to 10 mcg., in a volume of 0.5 ml and at 5 to 10 min intervals. Maximum changes in bloodflow, as well as any variations in blood pressure, were tabulated for each dose in absolute values (ml/min and mmHg). The calculations were made taking as control values those existing immediately before administration of each dose. The direction of the observed change (+ for increase and - for decrease) was also noted. The dose changing bloodflow by 100 ml/min (ED100 ml/min) was calculated graphically and was used for scoring activity as follows: […]

blood pressure = experiment: Effects on Blood Pressure and Heart Rate in the Anesthetized Cat (Test D); type: in vivo; settings: i.v. 0.01 to 10.0 mcg/kg, scored on hypotension
Experimental: D. Evaluation of the Effects of Prostaglandin Analogs III on Blood Pressure and Heart Rate in the Anesthetized Cat
The acute effects of test compounds on blood pressure and heart rate were determined in cats of either sex anesthetized with a mixture of pentobarbital sodium (35 mg/kg, i.v.) and barbital sodium (100 mg/kg, i.v.). Cannulas were placed in the trachea to allow adequate spontaneous ventilation, in a femoral artery for blood pressure recording with a strain gage transducer, and in a saphenous vein for drug administration. Heart rate was recorded by means of a cardiotachometer driven by the R wave of the electrocardiogram. After a period of 10 min of stable recordings of blood pressure and heart rate, the test compound was administered intravenously at doses increasing from 0.01 to 10.0 mcg/kg, spaced one log and injected at 10 min intervals. All doses were injected in a volume of 0.1 ml/kg. Modifications of blood pressure and heart rate induced by the test compound were expressed both in absolute units (mmHg and beats/min) and as percent of values recorded immediately before administration of each dose. Biphasic responses were tabulated in the order in which they occur. The direction of the observed changes was also noted (+ for increase and - for decrease).
Activity of compounds in this test was judged only on the basis of the degree of hypotension observed. Thus, the ED50 mmHg (dose decreasing blood pressure by 50 mmHg) was calculated graphically and the compound scored according to the following scale: […]

[4] = test system: blood pressure (hypertensive rat); experiment: Effects on Blood Pressure in the Hypertensive Rat (Test E); type: in vivo; design: key: 0: Not significant at any time interval; 1: Significant at one time interval; 2: Significant at two time intervals; 3: Significant at three time intervals; 4: Significant at all four intervals; settings: 1 mg/kg intraperitoneal, 2, 4, 6 and 8 hr
Experimental: E. Evaluation of the Effects of Prostaglandin Analogs III on Blood Pressure in the Hypertensive Rat
The acute antihypertensive activity of test compounds is determined in rats made hypertensive by the procedure of Grollman (A. Proc. Soc. Exper. Biol. Med., 57:102, [1944]). Female rats weighing between 60 and 100 g are anesthetized with ether, the right kidney approached through a flank retroperitoneal incision, decapsulated and tied with a figure-of-eight ligature. The animals are left to recover and two weeks later are again anesthetized and the contralateral kidney removed. Four weeks after the second operation the rats are subjected to indirect blood pressure measurements and those showing systolic pressure values greater than 160 mmHg are selected for drug testing.
Blood pressure is measured in the tail with an inflatable occluding cuff placed at the base of the extremity and a pulse detector located distally. The cuff is inflated to approximately 300 mmHg and is slowly deflated until pulsations appear, indicating the level of systolic pressure; diastolic pressure is not recorded by this procedure. All measurements are carried out in unanesthetized, unsedated animals maintained in a warm environment during the recording procedure and for at least 6 hr before. In all cases, three pressure readings are obtained in succession and mean values are calculated thereof.
Experiments are carried out in groups of five hypertensive rats in which systolic pressure is determined immediately before and 2, 4, 6 and 8 hr after the intraperitoneal administration of the test compound at a dose of 1 mg/kg. Drugs are diluted from stock solutions with phosphate buffer (Lee et al., Prostaglandins 3:29 [1973]), so as to inject this quantity in a volume of 1 ml/kg. Changes from control blood pressure values are calculated for each interval both in mmHg and in per-cent, and evaluated for significance by means of Wilcoxon's signed rank test (Wilcoxon and Wilcox, Some rapid approximate statistical procedures, Lederle Laboratories, Pearl River [1964]).

With `CCC1CC(C)([C@@H](O)/C=C/C2C=CC(=O)C2CCCCCCC(=O)OC)C1` (stereo partly drawn) [TR-4695, Methyl 15S-hydroxy-16,18-methano-16-methyl-9-oxoprosta-10,13E-dien-1-oate] the “Activity value, Test B: Inhibition of a Rodent Gastric Secretion (% decrease in acidity)” value (gastric secretion) was 0 (<26) and the “Activity value, Test F: Effects on Rat Uterus (ED50, response of 50% that of carbachol)” value (rat uterus) was 0 (>10).

For `CCCCC[C@H](O)/C=C/[C@H]1[C@H](O)CC(=O)[C@@H]1CCCCCCC(=O)O` [PGE1], the “contraction of the vas deferens” value [1] is listed as “contracts the smooth muscle of the vas deferens” and the “inhibition of platelet aggregation, natural prostaglandins, in words” value [2] is listed as “displays a similar activity”.

In the case of `CCC1CC([C@H](O)/C=C/C2C(O)CC(O)C2CCCCCCCO)C1` (stereo partly drawn) [TR-4627, 16,18-Methanoprost-13E-en-1,9β,11α,15S-tetraol], the “Activity value, Test B: Inhibition of a Rodent Gastric Secretion (% decrease in acidity)” value (gastric secretion) is reported as 0 (<26) and the “Activity value, Test F: Effects on Rat Uterus (ED50, response of 50% that of carbachol)” value (rat uterus) is reported as 0 (>10).

For `CCCCC[C@H](O)/C=C/[C@@H]1[C@@H](C/C=C\CCCC(=O)O)[C@@H](O)C[C@H]1O` [PGF2α], the “effects on uterus, fertility, gestation and labor” value [3] is given as “has contragestational effects; also recorded: induces spontaneous abortions in early pregnancy”.

In the case of `CCC1CC([C@H](O)/C=C/C2C(O)CC(O)C2CCCCCCC(=O)OC)C1` (stereo partly drawn) [TR-4624, Methyl 16,18-methano-9α,1α,15S-trihydroxyprost-13E-en-1-oate], the “Activity value, Test C: Increase in Canidae Femoral Blood Flow (ED100 ml/min)” value (femoral blood flow) is reported as 0 (>10.0), the “Activity value, Test B: Inhibition of a Rodent Gastric Secretion (% decrease in acidity)” value (gastric secretion) is reported as 0 (<26) and the “Activity value, Test F: Effects on Rat Uterus (ED50, response of 50% that of carbachol)” value (rat uterus) is reported as 0 (>10). The “Activity value, Test D: Increase in Normal Feline Blood Pressure and Heart Rate (ED50 mmHg)” value (blood pressure) was 0 (>10.1) and the “Activity value, Test E: Effects on Blood Pressure in Hypertensive Rat (blood pressure decrease)” value [4] was 0.

For `CCC1CC([C@H](O)/C=C/C2C(O)CC(O)C2CCCCCCC(=O)OC)C1` (stereo partly drawn) [TR-4625, Methyl 16,18-methano-9β,11α,15S-trihydroxyprost-13E-en-1-oate], the “Activity value, Test C: Increase in Canidae Femoral Blood Flow (ED100 ml/min)” value (femoral blood flow) was 0 (>10.0), the “Activity value, Test B: Inhibition of a Rodent Gastric Secretion (% decrease in acidity)” value (gastric secretion) was 0 (<26) and the “Activity value, Test F: Effects on Rat Uterus (ED50, response of 50% that of carbachol)” value (rat uterus) was 0 (>10). The “Activity value, Test D: Increase in Normal Feline Blood Pressure and Heart Rate (ED50 mmHg)” value (blood pressure) was 0 (>10.1) and the “Activity value, Test E: Effects on Blood Pressure in Hypertensive Rat (blood pressure decrease)” value [4] was 0.

With `CCC1CC(C(/C=C/C2C=CC(=O)C2CCCCCCC(=O)OC)OC(C)=O)C1` (centres unmarked) [TR-4281, Methyl 15RS-acetoxy-16,18-methano-9-oxoprosta-10,13E-dien-1-oate] the “Activity value, Test B: Inhibition of a Rodent Gastric Secretion (% decrease in acidity)” value (gastric secretion) was 0 (<26) and the “Activity value, Test F: Effects on Rat Uterus (ED50, response of 50% that of carbachol)” value (rat uterus) was 0 (>10).

In the case of `CCCCC[C@H](O)/C=C/[C@@H]1[C@@H](C/C=C\CCCC(=O)O)[C@@H](O)C[C@H]1O` [PGF2], the “effects on uterus, fertility, gestation and labor” value [3] is listed as “exerts potent oxytocic effects in inducing labor”.
